Data from patent EP3502102A1, “STING INHIBITORS” (ECOLE POLYTECHNIQUE FEDERALE DE LAUSANNE (EPFL), priority 2017, dated 2019).

Target: T1, RIG-I (Homo sapiens, UniProt O95786)
T1 construct: expressed in transfected cells; host or cells: HEK293T
T1 sequence (O95786 1-925): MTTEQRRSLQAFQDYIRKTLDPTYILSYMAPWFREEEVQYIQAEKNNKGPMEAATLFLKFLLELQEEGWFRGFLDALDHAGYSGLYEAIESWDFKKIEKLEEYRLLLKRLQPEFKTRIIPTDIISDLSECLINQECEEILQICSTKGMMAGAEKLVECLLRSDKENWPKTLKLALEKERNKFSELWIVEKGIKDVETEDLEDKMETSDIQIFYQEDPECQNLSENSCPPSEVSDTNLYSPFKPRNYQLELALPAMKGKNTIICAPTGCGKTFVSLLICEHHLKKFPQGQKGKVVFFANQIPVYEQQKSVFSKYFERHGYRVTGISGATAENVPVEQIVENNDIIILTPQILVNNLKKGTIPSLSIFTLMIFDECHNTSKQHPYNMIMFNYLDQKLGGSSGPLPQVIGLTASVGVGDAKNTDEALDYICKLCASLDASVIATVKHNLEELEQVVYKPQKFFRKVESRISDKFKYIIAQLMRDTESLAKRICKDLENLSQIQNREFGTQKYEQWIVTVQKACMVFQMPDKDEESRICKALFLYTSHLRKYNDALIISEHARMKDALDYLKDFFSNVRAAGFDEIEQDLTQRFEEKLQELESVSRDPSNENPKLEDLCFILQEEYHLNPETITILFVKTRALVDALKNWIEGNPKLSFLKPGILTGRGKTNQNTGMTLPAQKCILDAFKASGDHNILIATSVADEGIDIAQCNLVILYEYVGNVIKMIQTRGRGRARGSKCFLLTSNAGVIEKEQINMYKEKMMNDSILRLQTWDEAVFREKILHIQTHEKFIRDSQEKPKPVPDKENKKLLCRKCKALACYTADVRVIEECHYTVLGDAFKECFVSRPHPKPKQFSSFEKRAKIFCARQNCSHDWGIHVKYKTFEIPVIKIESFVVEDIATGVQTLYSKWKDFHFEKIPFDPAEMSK
Experiment: IFN-beta luciferase reporter in HEK293T cells transfected with RIG-I (counter-screen)
Format: cell-based
Settings: 0.01-5µM
Method: Reporter activity was measured 16 h after compound treatment. A nonlinear regression analysis was performed. […] Circles indicate substitutes compared to C-176. d, e, Chemical compounds from (c) were tested at 0.5 µM for inhibitory activity in HEK293T cells transfected with STING (e) or RIG-I (f) in conjunction with IFN-• luciferase reporter, respectively. b, e, f, Values of inhibitor-treated cells were normalized to DMSO-treated cells. […] Cytokine levels were normalized to DMSO-treated control cells. A nonlinear regression analysis was performed for cGAMP stimulation. b, c, BMDMs were pre-treated with C-178 (0.25 µM) and stimulated with cGAMP, cyclic di-GMP, CMA, 90mer dsDNA or LPS for 3 h. The induction of Ifnb1 mRNA levels was assessed by RT-qPCR. d, Heatmaps of RNA sequencing analysis of BMDMs treated with DMSO or CMA and with or without addition of C-178. […] Reporter activity was measured 16 h after transfection and values were normalized to DMSO-treated control cells. c, BMDMs were treated with C-178 (0.25 µM) for 1 h, washed or left untreated and after an additional hour stimulated with cGAMP. […] Flag-STING was immunoprecipitated from whole cell lysate and analysed by autoradiography. In parallel, cell lysates were analysed by immunoblotting for p-TBK1 and STING. d, HEK293T cells expressing STING were treated as indicated (C-178 (1 µM)) and stimulated with CMA for 1.5 h. […]

## O=C(Nc1ccc(I)cc1)c1ccc([N+](=O)[O-])o1 [C-176, N-(4-iodophenyl)-5-nitro-2-furamide]
  RIG-I-driven IFN induction: neither RIG-I nor TBK1-driven IFN induction was affected
